Like-named read-outs stand apart in the source and are kept apart here.
Legend:
[1] = system: HIV-1 Tat protein; assay: HeLa-Tat-Luc cells, HIV-1 LTR activated by Tat; format: cell-based; conditions: for inhibition at 50 µM: Human immunodeficiency virus 1, read-out: Antiviral activity Hela-Tat-luc 50 µM (inhibition of Tat function); for anti-Tat activity and specificity, in words: HeLa-Tat-Luc and Hela-Tet-ON assays; for inhibition at 25 µM: Human immunodeficiency virus 1, read-out: Antiviral activity Hela-Tat-luc 25 µM (inhibition of Tat function)
Source text: (§1) In the characterization of anti-HIV activity, the effect of these coumarins on Tat and NF-κB functions has been evaluated in a similar manner as we described in a previous publication. We have used two transfected 5.1 cell lines, in which we measured NF-κB activation induced by TNFα [42] and HeLa-Tat-Luc cells, in which the HIV-1 LTR is directly activated by the HIV-1 Tat protein. Most of the compounds were submitted for further evaluation through a HeLa-Tet-ON assay in order to determine the selectivity of their action. To avoid missing compounds acting through another mechanism, all substances were also evaluated using a recombinant virus (RV) assay. In this system, a luciferase reporter gene was cloned in full-length infectious DNA. As a result, the measured luciferase activity is therefore proportional to viral replication.
(§2) The anti-HIV activity of these coumarins on Tat and NF-κB functions has been analysed. To this aim, we have used two stably transfected cell lines. The previously described 5.1 cell line is a Jurkat-derived clone stably transfected with a plasmid containing the luciferase gene under the control of HIV-LTR. In this cell clone, activation with TNFα induces NF-κB activation and subsequent HIV-1 expression. We have also analyzed the anti-HIV activity in HeLa-Tat-Luc cells, in which the HIV-1 LTR is directly activated by the HIV-1 Tat protein. A compound was considered active in one assay if it inhibited the target function by more than 50% (NF-κB) or 30% (Tat) at either 25 or 50 μM concentration. The active compounds were submitted for further evaluation through a HeLa-Tet-ON assay, as previously described. In the Hela-Tet-ON cells the luciferase expression is under control of an artificial promoter that can be activated by tetracycline. Therefore, compounds that inhibit tetracycline-induced luciferase activity were considered non-specific for luciferase-based anti-HIV assays and were not examined further, and those showing specific activity (non-inhibitors in HeLa-Tet-ON cells) were analysed using a recombinant virus (RV) assay. […] In this system, a luciferase reporter gene has been cloned in full-length infectious DNA. The measured luciferase activity is therefore directly proportional to the replication of the virus. This assay is more sensitive and reliable than classic infectious assays. Cell viability was evaluated in non-infected treated cultures following the same protocol as in the recombinant virus assay and measuring cell toxicity with a classical MTT assay. IC50 and CC50 were calculated using GraphPad Prism software [non-linear regression, log (inhibitor) vs. response].

[2] = system: HIV-1; assay: Recombinant virus (RV) assay, luciferase reporter virus on MT-2 cells; format: cell-based; conditions: for rank as inhibitor of HIV replication, in words: RV assay; for fold lesser potent than 11 in the RV assay: relative to compound 11
Method: We have synthesized fourteen 3-phenylcoumarin derivatives and evaluated their anti-HIV activity. Antiviral activity was assessed on MT-2 cells infected with viral clones carrying the luciferase gene as reporter. Inhibition of HIV transcription and Tat function were tested on cells stably transfected with the HIV-LTR and Tat protein. […] The antiviral effect of the 4-hydroxycoumarin derivative 19 correlates with its specific inhibition of Tat functions, while compound 8, 3-(2-chlorophenyl)coumarin, seems to act through a mechanism unrelated to the molecular targets considered in this research.
as §1, §2

[3] = system: tetracycline-induced luciferase activity in HeLa-Tet-ON cells; assay: HeLa-Tet-ON specificity assay; format: cell-based; parameters: key: S: specific; U: unspecific modes of action
Source text: as §1, §2

[4] = system: non-infected MT-2 cells; assay: Cell viability, MTT assay in non-infected treated cultures; format: cell-based; parameters: Toxicity (%) CC50: unit not given here
Source text: as §2

[5] = system: NF-κB; assay: 5.1 cell line + TNFα, HIV-LTR luciferase (NF-κB activation); format: cell-based; conditions: for inhibition at 50 µM: read-out: Antiviral activity 5.1 + TNFα 50 µM (inhibition of NF-κB function); for inhibition at 25 µM: read-out: Antiviral activity 5.1 + TNFα 25 µM (inhibition of NF-κB function); for specificity of NF-κB inhibition, in words: with HeLa-Tet-ON evaluation
Source text: as §1, §2

[6] = system: HIV-1; parameters: method as in PMID 15911030; conditions: comparison data; read-out: RV (VIH) IC50; cited from earlier work
[7] = system: tetracycline-induced luciferase activity in HeLa-Tet-ON cells; parameters: method as in PMID 15911030; key: S: specific; U: unspecific modes of action; conditions: comparison data; cited from earlier work
[8] = system: NF-κB; parameters: method as in PMID 15911030; conditions: comparison data, cited from earlier work
[9] = system: HIV-1 Tat protein; parameters: method as in PMID 15911030; conditions: comparison data; cited from earlier work
[10] = system: non-infected MT-2 cells; parameters: method as in PMID 15911030; conditions: comparison data; read-out: Toxicity CC50; cited from earlier work
[11] = Human immunodeficiency virus 1, MT2, read-out: RV (VIH) IC50

SMILES	inhibition at 50 µM [1] [%]	IC50 [2, 11] [µM]	melting point [°C]	HeLa-Tet-ON 50 µM (specific / unspecific mode of action) [3]	Toxicity (%) CC50 ([4]; MTT, non-infected cultures)	inhibition at 50 µM [5] [%]	inhibition at 25 µM [1] [%]	inhibitory activity in the NF-κB test, in words ([5]; 50 µM)	also measured
O=c1oc2ccccc2cc1-c1ccccc1Cl [Compound 8, 3-(2-Chlorophenyl)-2H-chromen-2-one]	17.6 ± 2.1	20.7 ± 1.9	186 to 188	S	>50	-28.7 ± 4	–	–	rank as inhibitor of HIV replication, in words [2]: second more potent replication inhibitor
CSc1ccc(-c2cc3ccccc3oc2=O)cc1 [Compound 11, 3-(4-Methylsulfanylphenyl)-2H-chromen-2-one]	80.1 ± 5.6	18.2 ± 0.2	157 to 159	U	>50	81.6 ± 5.6	77.5 ± 8.5	fair inhibitory activity	anti-Tat activity and specificity, in words [1]: potent though unspecific anti-Tat activity; rank as inhibitor of HIV replication, in words [2]: most potent inhibitor of HIV replication; inhibitory activity in the NF-κB test, in words ([5]; 25 μM): confirmed; inhibition at 25 µM [5]: 84.3 ± 3%
O=c1oc2cc(O)ccc2cc1-c1ccccc1 [Compound 16, 7-Hydroxy-3-phenyl-2H-chromen-2-one]	17.2 ± 0.5	81.4 ± 14	–	S	>50	59 ± 8.2	–	fair inhibitory activity	specificity of NF-κB inhibition, in words [5]: specific inhibitors of the NF-κB function
O=c1oc2ccccc2cc1-c1ccccc1 [Compound 7, 3-Phenyl-2H-chromen-2-one]	33.7 ± 1	130 ± 11.4	–	S	>50	21.7 ± 3	26.8 ± 2.9	–	–
O=c1oc2ccccc2cc1-c1ccc(Cl)cc1Cl [Compound 12, 3-(2,4-Dichlorophenyl)-2H-chromen-2-one]	14.1 ± 0.6	> 172	226 to 228	S	>50	-40.9 ± 2.3	–	–	–
Cc1cn([C@H]2C[C@H](N=[N+]=[N-])[C@@H](CO)O2)c(=O)[nH]c1=O [AZT, reference compound]	–	–	–	–	–	–	–	–	IC50 ([2]; recombinant virus, luciferase, read-out: RV (VIH) IC50): 0.01 µM; CC50 ([4]; comparison drug, read-out: Toxicity CC50): > 1 µM
COc1cc(-c2cc3ccccc3oc2=O)cc(OC)c1OC [Compound 15, 3-(3,4,5-Trimethoxyphenyl)-2H-chromen-2-one]	35.1 ± 3.9	62.7 ± 13.1	122 to 124	U	42.8 ± 16.2	49.7 ± 7	47.6 ± 6.2	fair inhibitory activity	specificity of NF-κB inhibition, in words [5]: unspecific
COc1ccc(-c2cc3cccc(O)c3oc2=O)cc1 [Compound 17, 8-Hydroxy-3-(4-methoxyphenyl)-2H-chromen-2-one]	88.3 ± 5.5	84.6 ± 12.1	–	U	>50	87.8 ± 9.8	85.7 ± 3.4	fair inhibitory activity	anti-Tat activity and specificity, in words [1]: potent though unspecific anti-Tat activity; fold lesser potent than 11 in the RV assay [2]: 4-5 fold; inhibitory activity in the NF-κB test, in words ([5]; 25 μM): confirmed; inhibition at 25 µM [5]: 82.2 ± 3.1%
CC(C)=CCc1c(O)c(C(=O)C(C)C)c(O)c2c(-c3ccccc3)cc(=O)oc12 [Mesuol]	–	–	–	–	–	–	–	–	IC50 [6]: 2.5 µM; HeLa-Tet-ON 50 µM (specific / unspecific) [7]: S; Antiviral activity 5.1 + TNFα 25 µM ([8]; 25 µM): 71.0 ± 4.8%; Antiviral activity 5.1 + TNFα 50 µM ([8]; 50 µM): 77.9 ± 4.9%; Antiviral activity Hela-Tat-luc 50 µM [9]: 71.3 ± 8.9%; CC50 [10]: > 4 µM
COc1ccc2c(O)c(-c3ccccc3)c(=O)oc2c1 [Compound 19, 4-Hydroxy-7-methoxy-3-phenyl-2H-chromen-2-one]	55.7 ± 4.9	23.8 ± 1.7	217 to 219	S	>50	-4.7 ± 0.3	48.9 ± 3.4	–	anti-Tat activity and specificity, in words [1]: modest, but specific inhibition; inhibition at 25 µM [5]: -34.3 ± 5%
COc1ccc2c(Cl)c(-c3ccccc3)c(=O)oc2c1 [Compound 20, 4-Chloro-7-methoxy-3-phenyl-2H-chromen-2-one]	-64.4 ± 10	> 209	–	–	18.4 ± 8.2	-21.2 ± 7	–	–	–
O=c1oc2ccccc2cc1-c1ccc(Cl)cc1 [Compound 9, 3-(4-Chlorophenyl)-2H-chromen-2-one]	-4.9 ± 0.8	> 195	190 to 192	–	>50	33 ± 2.33	–	–	–
COc1ccc(-c2cc3ccccc3oc2=O)cc1 [Compound 10, 3-(4-Methoxyphenyl)-2H-chromen-2-one]	66.6 ± 3.4	73 ± 8.6	141 to 143	U	–	61.2 ± 2.4	73.5 ± 6.7	fair inhibitory activity	anti-Tat activity and specificity, in words [1]: potent though unspecific anti-Tat activity; fold lesser potent than 11 in the RV assay [2]: 4-5 fold
COc1ccc2oc(=O)c(-c3ccccc3)c(O)c2c1 [Compound 18, 4-Hydroxy-6-methoxy-3-phenyl-2H-chromen-2-one]	22.8 ± 3.4	186 ± 10.8	–	S	–	–	–	–	Toxicity (%) CC50 ([4]; human): >50; inhibition at 50 µM ([5]; 50 µM, 5.1 Jurkat-derived cells, TNFα): -3.5 ± 0.9%
COc1ccc(-c2cc3ccccc3oc2=O)cc1OC [Compound 14, 3-(3,4-Dimethoxyphenyl)-2H-chromen-2-one]	-25.1 ± 5.3	> 177	127 to 129	–	>50	-23 ± 2.9	–	–	–
O=c1oc2ccccc2cc1-c1ccc2c(c1)OCO2 [Compound 13, 3-(Benzo[d][1,3]dioxol-5-yl)-2H-chromen-2-one]	39.5 ± 2.3	138 ± 22.3	168 to 170	S	16.7 ± 3.4	68.5 ± 3.4	32.8 ± 4.3	fair inhibitory activity	specificity of NF-κB inhibition, in words [5]: specific inhibitors of the NF-κB function

Source: paper PMC6268528, “3-Phenylcoumarins as Inhibitors of HIV-1 Replication” (Molecules, 2012)
